Data: ChEMBL document CHEMBL1201862, “PubChem BioAssay data set” (2004)
The source made the active and inactive calls.

Experiments:
[1] = system: Streptococcus; test: GAS UMAA2166 growth inhibition – luminescence, BacTiterGlo, counter-screen for streptokinase expression inhibitor project, dose response (AID 1915); assay type: functional, organism-based;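 further: potency for reduction of bacterial viability or growth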
[2] = system: Streptococcus sp. 'group A'; test: Streptococcus pyogenes SK(-)GAS viability under kanamycin – luminescence, BacTiterGlo, confirmation, counter-screen for streptokinase expression inhibitor project, dose response (AID 1900); assay type: functional, organism-based
[3] = target: T1, Streptokinase A (Streptococcus pyogenes serotype M1, UniProt P10520); test: viability-normalized secreted streptokinase activity reduction – plasminogen activation absorbance, OD405, dose response (AID 1914); assay type: functional, Streptococcus pyogenes M1 GAS;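 further: secreted streptokinase activity via plasminogen activation per viability signal from cell pellet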
T1 sequence (P10520 whole entry): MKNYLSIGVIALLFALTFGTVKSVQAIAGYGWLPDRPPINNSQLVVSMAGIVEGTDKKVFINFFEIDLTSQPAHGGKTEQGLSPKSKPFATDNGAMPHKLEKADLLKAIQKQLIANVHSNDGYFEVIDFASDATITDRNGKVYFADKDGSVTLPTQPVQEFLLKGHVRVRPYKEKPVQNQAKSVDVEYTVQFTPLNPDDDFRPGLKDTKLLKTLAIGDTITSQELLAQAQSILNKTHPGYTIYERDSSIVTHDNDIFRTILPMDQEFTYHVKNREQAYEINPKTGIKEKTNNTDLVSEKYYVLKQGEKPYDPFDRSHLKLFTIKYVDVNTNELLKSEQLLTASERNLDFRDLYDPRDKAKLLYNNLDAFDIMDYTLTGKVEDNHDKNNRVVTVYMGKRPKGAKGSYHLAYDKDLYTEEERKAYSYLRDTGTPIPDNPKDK

[4] = viability of uninfected HEp-2 cells – cell-based, HTS, cytotoxicity control for RSV inhibitor project, dose response (AID 2410); assay type: functional; conditions: human respiratory syncytial virus
[5] = target: T2, Replicative DNA helicase DnaB (Mycobacterium tuberculosis, UniProt P9WMR3); test: DnaB intein splicing inhibitors, dose response, biochemical, cell-free fluorescence (AID 449749); assay type: functional
T2 sequence (P9WMR3 whole entry): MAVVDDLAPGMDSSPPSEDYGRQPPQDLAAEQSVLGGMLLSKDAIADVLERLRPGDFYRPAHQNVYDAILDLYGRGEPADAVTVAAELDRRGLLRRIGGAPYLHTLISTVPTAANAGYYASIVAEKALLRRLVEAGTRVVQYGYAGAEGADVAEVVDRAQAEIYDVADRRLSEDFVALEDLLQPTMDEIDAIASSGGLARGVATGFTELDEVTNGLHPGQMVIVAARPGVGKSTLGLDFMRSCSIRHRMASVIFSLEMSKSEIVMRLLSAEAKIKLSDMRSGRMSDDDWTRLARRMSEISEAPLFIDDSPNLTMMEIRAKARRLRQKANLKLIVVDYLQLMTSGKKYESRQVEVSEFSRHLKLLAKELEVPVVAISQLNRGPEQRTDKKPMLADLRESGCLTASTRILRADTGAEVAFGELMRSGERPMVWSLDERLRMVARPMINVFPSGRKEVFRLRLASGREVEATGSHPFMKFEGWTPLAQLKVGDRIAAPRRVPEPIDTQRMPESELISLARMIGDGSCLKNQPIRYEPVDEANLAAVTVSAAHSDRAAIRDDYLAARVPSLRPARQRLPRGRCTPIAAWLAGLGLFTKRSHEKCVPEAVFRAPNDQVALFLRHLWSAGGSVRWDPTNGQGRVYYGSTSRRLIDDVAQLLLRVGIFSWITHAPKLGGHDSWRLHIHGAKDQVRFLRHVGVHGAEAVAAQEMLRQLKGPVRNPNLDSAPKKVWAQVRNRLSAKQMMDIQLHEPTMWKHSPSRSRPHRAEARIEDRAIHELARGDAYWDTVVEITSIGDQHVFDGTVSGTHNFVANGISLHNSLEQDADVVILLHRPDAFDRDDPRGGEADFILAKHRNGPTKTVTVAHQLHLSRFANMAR

[6] = target: G-protein coupled receptor 55 (Homo sapiens, UniProt Q9Y2T6); test: inhibition of LPI-stimulated GPR55 beta-arrestin translocation – imaging, U2OS, beta-arrestin-GFP, LPI agonist, primary screen (AID 2013); assay type: functional;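 further: antagonist potency measured as reduced agonist-driven arrestin aggregation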
Chain of G-protein coupled receptor 55 (Q9Y2T6 whole entry): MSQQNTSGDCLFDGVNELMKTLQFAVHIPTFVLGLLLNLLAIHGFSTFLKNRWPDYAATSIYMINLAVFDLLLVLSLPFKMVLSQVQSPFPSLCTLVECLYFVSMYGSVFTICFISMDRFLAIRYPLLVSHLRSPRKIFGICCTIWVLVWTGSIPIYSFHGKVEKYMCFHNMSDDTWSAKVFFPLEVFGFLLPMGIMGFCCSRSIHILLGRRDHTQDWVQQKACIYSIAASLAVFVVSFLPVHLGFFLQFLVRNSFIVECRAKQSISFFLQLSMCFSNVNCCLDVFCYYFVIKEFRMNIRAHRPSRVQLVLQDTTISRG

[7] = target: T3, Protein RecA (Mycobacterium tuberculosis, UniProt P9WHJ3); test: Fluorescence Cell-Free Homogeneous Dose Retest to Identify Inhibitors of RecA-Intein Splicing Activity. [Related pubchem assays (depositor defined):AID2097, AID2223, AID489010, AID492950]; assay type: functional
T3 sequence (P9WHJ3 whole entry): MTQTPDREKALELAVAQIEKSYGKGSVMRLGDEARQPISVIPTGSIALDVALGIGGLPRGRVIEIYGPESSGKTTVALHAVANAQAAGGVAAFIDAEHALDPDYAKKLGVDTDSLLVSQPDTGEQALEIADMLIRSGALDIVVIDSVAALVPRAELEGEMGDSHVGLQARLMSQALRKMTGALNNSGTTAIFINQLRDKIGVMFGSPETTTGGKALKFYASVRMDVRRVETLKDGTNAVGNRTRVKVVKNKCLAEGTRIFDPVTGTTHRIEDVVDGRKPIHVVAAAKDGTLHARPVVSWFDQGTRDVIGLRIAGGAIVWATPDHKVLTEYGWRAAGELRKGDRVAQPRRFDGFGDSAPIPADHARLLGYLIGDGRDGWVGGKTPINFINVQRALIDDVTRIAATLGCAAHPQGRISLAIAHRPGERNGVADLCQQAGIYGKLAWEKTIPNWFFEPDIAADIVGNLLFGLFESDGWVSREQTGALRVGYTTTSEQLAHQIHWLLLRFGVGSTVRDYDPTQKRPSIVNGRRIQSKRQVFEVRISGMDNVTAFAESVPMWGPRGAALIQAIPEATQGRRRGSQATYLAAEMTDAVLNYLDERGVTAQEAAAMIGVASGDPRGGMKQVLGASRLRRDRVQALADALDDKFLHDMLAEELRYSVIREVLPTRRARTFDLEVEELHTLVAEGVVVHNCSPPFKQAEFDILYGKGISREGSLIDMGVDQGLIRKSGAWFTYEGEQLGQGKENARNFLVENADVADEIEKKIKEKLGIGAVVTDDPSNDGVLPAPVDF

[8] = luciferase reporter signal suppression in cells – H4 neuroglioma cells, luminescence, dose response (AID 1990); assay type: functional, cell-based
[9] = alpha-synuclein stem-loop translation blockers – luminescence, H4 neuroglioblastoma cells, dose confirmation, confirmation (AID 2454); assay type: functional, cell-based;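 further: H4 neuroglioblastoma cells carrying an alpha-synuclein 5'UTR luciferase reporter; potency for inhibition of the luciferase signal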
[10] = HEK-293T viability loss after treatment – luminescence, T-cell screen hits, cytotoxicity control for TCR NF-kB inhibitor project, dose response (AID 489026); assay type: functional, cell-based;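 further: cells exposed to compound about 14 hours before the viability readout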
[11] = cells; assay type: functional, cell-based
[12] = alpha-synuclein stem-loop luciferase translation blockers – H4 neuroglioma cells, luminescence, confirmation (AID 1988); assay type: functional, cell-based
[13] = Luminescence Cell-Based Dose Response HTS to Identify Inhibitors of 5'UTR Stem-Loop Driven Prion Protein mRNA Translation in H4 Neuroglioblastoma Cells. [Related pubchem assays: 1827 (Project Summary), 1813 (Primary HTS)]; assay type: functional
[14] = target: Eukaryotic translation initiation factor 4H (Homo sapiens, UniProt Q15056); test: inhibitors of translation initiation factor eIF4H – SAR follow-up (AID 435011); assay type: functional
[15] = luciferase reporter signal reduction – luminescence, H4-C neuroglioblastoma cells, dose response (AID 2458); assay type: functional, cell-based;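 further: H4 neuroglioblastoma cells stably carrying a luciferase reporter gene fusion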
[16] = target: Intestinal-type alkaline phosphatase (Homo sapiens, UniProt P09923); test: Dose Response confirmation of uHTS hits from a small molecule inhibitors of human intestinal alkaline phosphatase via a luminescent assay. [Related pubchem assays (depositor defined):AID2544, AID2574]; assay type: functional
Chain of Intestinal-type alkaline phosphatase (P09923 whole entry): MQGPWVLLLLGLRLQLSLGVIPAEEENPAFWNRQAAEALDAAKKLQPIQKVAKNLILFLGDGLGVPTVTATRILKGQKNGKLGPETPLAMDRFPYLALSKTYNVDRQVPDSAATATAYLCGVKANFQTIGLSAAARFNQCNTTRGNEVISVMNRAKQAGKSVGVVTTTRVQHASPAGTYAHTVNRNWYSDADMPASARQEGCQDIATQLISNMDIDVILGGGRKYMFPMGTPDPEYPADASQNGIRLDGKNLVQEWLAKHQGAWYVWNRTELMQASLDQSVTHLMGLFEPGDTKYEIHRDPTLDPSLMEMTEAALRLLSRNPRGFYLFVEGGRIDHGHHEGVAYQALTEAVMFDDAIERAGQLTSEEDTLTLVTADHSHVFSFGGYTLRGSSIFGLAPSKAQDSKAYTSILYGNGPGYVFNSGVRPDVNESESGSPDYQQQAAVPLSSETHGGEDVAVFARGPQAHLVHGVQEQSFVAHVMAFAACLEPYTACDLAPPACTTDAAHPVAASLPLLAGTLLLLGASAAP

[17] = system: H9c2; test: cells; assay type: functional, cell-based; conditions: Rattus norvegicus, H9c2, Myocardium;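 further: confirmatory concentration-response retest of ultra-high-throughput screening hits for modulation of myocardial damage; cell death induced by hydrogen peroxide oxidative stress; compound pretreatment for 60 min then peroxide exposure for 2 h; potency is for protecting the cells against peroxide damage rather than for killing them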
[18] = target: T4, Mannose-6-phosphate isomerase (Homo sapiens, UniProt P34949); test: phosphomannose isomerase inhibition – biochemical, fluorescence intensity, confirmation (AID 1535)
T4 sequence (P34949 whole entry): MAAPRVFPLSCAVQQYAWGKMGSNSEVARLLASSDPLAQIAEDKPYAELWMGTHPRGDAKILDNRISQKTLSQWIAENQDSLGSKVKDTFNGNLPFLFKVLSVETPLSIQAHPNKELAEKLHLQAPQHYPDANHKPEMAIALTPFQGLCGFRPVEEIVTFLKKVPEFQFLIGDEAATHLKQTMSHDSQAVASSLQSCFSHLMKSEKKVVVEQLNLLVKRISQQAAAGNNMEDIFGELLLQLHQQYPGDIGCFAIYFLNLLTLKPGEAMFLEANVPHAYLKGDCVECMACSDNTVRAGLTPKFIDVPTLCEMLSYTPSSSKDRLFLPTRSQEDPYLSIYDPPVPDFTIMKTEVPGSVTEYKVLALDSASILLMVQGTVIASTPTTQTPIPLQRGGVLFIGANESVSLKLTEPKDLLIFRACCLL

[19] = target: Phosphomannomutase 2 (Homo sapiens, UniProt O15305); test: Counter screen SAR assay for PMM2 inhibitors via a fluorescence intensity assay. [Related pubchem assays (depositor defined):AID1545, AID1574]
[20] = target: Mu-type opioid receptor (Homo sapiens, UniProt P35372); test: SAR Analysis of Agonists of the MOR Receptor using an Image-Based Assay - Set 3. [Related pubchem assays (depositor defined):AID1777, AID1785, AID1786, AID1966, AID2133, AID2136, AID2284, AID2285, AID2352]; assay type: functional
Chain of Mu-type opioid receptor (P35372 whole entry): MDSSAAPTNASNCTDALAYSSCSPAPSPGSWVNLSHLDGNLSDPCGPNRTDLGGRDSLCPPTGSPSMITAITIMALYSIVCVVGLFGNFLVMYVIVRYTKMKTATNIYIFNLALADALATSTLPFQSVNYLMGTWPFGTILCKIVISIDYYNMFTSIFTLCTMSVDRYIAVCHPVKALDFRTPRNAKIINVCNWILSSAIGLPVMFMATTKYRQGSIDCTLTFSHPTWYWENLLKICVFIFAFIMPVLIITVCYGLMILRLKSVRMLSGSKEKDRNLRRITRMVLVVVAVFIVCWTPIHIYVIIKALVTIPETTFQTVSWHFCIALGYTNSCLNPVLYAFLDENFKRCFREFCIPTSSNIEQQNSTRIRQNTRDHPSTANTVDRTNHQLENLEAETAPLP

[21] = target: Delta-type opioid receptor (Homo sapiens, UniProt P41143); test: SAR Analysis of Agonists of the DOR Receptor using an Image-Based Assay - Set 3. [Related pubchem assays (depositor defined):AID1777, AID1786]; assay type: functional
[22] = target: Kappa-type opioid receptor (Homo sapiens, UniProt P41145); test: SAR analysis of small molecule agonists of the kappa opioid receptor via a luminescent beta-arrestin assay - Set 3. [Related pubchem assays (depositor defined):AID1777, AID1785, AID1786, AID1966, AID2133, AID2136, AID2284, AID2500]; assay type: functional
Chain of Kappa-type opioid receptor (P41145 whole entry, the tested form may be a part): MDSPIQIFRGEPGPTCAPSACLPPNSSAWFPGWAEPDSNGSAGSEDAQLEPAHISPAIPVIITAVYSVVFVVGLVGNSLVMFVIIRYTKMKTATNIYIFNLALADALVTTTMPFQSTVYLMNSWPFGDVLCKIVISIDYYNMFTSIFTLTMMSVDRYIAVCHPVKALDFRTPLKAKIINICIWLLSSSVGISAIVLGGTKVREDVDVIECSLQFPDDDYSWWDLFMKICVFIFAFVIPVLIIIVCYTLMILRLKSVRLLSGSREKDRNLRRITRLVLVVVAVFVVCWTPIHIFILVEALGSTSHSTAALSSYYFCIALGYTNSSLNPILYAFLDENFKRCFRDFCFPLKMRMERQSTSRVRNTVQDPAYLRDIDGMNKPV

[23] = Fluorescence-based cell-based high throughput dose response assay for inhibitors of the interaction of nucleotide-binding oligomerization domain containing 2 (NOD2) and the receptor-interacting serine-threonine kinase 2 (RIPK2).; assay type: functional; conditions: Homo sapiens
[24] = target: Glucose-6-phosphate 1-dehydrogenase (Homo sapiens, UniProt P11413); test: inhibition of Homo sapiens G6PD, dose series – biochemical, fluorescence, selectivity assay for P. falciparum G6PD inhibitor project, dose response (AID 504792); assay type: functional
Chain of Glucose-6-phosphate 1-dehydrogenase (P11413 whole entry): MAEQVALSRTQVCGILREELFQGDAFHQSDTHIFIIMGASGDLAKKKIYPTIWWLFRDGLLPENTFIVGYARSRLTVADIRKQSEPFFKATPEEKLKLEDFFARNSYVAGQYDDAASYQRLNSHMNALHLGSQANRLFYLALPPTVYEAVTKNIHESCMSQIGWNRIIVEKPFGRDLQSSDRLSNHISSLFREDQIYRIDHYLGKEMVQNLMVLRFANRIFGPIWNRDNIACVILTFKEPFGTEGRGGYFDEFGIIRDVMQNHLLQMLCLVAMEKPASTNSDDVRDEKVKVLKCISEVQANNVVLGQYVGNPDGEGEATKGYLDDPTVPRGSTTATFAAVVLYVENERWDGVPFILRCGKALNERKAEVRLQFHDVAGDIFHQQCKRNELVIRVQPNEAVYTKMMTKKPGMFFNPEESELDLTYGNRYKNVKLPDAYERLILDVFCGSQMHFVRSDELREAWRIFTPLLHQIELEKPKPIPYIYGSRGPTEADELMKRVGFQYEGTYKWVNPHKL

[25] = target: Hexokinase (Trypanosoma brucei, UniProt Q38C41); test: Confirmation assay for inhibitors of Trypanosoma brucei hexokinase 1-Analogue-first series. [Related pubchem assays (depositor defined):AID1430, AID1632, AID2516, AID2560, AID2579, AID2600, AID449725, AID492951]; assay type: functional
Chain of Hexokinase (Q38C41 whole entry): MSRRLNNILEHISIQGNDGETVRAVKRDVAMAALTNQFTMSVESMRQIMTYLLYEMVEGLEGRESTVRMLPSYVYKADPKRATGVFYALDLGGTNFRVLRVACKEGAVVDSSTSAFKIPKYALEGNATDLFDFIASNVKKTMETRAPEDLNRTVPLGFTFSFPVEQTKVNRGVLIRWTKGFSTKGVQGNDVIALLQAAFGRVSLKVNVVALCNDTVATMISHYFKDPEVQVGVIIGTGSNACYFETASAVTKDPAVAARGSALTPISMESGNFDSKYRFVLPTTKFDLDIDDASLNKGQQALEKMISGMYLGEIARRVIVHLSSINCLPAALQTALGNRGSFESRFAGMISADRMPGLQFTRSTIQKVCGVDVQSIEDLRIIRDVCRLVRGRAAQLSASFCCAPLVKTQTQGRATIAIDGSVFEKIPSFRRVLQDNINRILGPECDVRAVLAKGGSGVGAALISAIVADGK

[26] = target: Voltage-dependent T-type calcium channel subunit alpha-1H (Homo sapiens, UniProt O95180); test: human CACNA1H calcium influx blockade – cell-based, synthetic library set 1, calcium flux (AID 493022); assay type: functional
Chain of Voltage-dependent T-type calcium channel subunit alpha-1H (O95180 whole entry): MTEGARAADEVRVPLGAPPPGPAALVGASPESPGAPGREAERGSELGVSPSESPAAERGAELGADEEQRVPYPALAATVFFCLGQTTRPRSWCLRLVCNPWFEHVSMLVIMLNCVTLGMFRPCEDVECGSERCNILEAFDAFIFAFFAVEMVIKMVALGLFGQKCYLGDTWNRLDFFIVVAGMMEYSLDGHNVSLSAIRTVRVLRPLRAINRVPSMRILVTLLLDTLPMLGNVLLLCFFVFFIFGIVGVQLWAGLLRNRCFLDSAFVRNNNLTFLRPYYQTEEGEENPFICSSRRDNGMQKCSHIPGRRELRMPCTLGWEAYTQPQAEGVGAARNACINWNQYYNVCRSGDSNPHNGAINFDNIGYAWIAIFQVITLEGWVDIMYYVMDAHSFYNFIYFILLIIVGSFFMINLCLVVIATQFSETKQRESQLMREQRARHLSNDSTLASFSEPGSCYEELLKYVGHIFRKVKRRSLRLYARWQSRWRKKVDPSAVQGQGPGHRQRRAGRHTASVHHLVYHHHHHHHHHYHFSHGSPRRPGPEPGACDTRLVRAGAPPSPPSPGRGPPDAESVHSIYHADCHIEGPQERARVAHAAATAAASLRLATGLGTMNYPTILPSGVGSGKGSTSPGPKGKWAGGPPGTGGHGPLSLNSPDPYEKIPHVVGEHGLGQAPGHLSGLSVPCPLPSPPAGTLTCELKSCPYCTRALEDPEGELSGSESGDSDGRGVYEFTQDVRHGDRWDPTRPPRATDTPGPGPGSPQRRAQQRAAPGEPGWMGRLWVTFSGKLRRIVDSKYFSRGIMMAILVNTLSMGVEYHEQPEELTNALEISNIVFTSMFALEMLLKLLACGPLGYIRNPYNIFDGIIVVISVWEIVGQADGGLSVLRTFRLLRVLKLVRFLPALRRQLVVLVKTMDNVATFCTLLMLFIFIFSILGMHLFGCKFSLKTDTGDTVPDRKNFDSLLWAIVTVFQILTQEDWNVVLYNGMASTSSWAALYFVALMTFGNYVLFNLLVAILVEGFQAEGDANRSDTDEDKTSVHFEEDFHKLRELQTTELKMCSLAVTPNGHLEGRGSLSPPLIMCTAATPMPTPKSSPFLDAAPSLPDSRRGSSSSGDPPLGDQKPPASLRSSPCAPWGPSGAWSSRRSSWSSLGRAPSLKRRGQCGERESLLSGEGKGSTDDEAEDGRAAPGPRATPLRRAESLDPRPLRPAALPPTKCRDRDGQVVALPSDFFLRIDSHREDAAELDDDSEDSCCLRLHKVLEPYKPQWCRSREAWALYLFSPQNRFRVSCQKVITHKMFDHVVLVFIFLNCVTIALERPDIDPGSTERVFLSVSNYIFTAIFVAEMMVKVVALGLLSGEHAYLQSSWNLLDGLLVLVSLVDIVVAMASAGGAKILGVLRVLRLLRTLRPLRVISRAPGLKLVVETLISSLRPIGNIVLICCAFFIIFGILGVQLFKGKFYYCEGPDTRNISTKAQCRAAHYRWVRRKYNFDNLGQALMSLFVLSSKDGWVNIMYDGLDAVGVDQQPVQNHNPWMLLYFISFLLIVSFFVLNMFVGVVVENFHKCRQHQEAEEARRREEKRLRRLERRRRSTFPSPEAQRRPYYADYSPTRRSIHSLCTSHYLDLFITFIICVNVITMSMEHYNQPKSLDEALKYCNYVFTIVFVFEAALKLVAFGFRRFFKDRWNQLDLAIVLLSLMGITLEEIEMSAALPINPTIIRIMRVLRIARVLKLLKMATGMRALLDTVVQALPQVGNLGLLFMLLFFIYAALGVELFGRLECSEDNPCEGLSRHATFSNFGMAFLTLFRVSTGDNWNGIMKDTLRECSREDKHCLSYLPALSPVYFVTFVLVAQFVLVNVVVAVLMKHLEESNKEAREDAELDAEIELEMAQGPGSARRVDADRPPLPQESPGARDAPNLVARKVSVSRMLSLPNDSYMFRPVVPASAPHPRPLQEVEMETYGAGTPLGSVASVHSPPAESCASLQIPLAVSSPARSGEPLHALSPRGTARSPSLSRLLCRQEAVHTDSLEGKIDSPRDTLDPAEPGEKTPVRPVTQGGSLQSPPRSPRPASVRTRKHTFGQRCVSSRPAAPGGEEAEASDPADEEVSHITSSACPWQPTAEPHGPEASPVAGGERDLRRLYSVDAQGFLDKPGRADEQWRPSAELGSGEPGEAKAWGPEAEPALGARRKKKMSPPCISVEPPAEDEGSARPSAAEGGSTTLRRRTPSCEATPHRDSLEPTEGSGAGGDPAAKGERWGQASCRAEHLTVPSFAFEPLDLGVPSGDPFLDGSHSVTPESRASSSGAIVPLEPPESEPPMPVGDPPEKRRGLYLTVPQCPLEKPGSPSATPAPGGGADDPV

[27] = target: T5, Alkaline phosphatase, tissue-nonspecific isozyme (Homo sapiens, UniProt P05186); test: potency against alkaline phosphatase TNAP – biochemical, luminescent, dose response, SAR follow-up (AID 1056)
T5 sequence (P05186 whole entry): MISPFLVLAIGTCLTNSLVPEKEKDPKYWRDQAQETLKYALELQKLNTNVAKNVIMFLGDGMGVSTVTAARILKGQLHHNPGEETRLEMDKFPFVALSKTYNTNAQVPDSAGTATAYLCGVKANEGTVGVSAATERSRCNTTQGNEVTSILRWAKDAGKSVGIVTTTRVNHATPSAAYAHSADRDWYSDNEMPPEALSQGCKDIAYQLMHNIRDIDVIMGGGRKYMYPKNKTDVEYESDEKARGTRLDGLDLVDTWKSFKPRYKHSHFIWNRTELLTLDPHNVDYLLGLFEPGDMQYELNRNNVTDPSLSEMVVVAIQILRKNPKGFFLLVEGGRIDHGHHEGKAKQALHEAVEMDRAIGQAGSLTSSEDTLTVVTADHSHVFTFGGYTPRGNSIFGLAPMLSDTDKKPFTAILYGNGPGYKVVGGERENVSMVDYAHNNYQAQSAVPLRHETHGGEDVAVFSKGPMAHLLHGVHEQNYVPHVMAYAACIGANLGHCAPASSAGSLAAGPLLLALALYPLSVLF

[28] = target: Alkaline phosphatase, placental type (Homo sapiens, UniProt P05187); test: human placental alkaline phosphatase inhibition – biochemical, luminescence, confirmation (AID 1512); assay type: functional

## c1ccc(-c2nc(N3CCCCCC3)nc(-n3ccnc3)n2)cc1
[1]
  EC50: 7.9 µM (active)
[2]
  EC50: 4.08 µM (active)
[3]
  EC50: > 150 µM (not active)
[4]
  CC50: 20.1 µM (active)
[5]
  AC50: 63.8 µM (active)
[6]
  IC50: 3.77 µM (active)
[7]
  EC50: > 380 µM (inactive)

## Cc1ccc(N2C(=O)c3cccc4c(N)ccc(c34)C2=O)c2cccnc12
[8]
  EC50: < 0.1 µM (active)
[9]
  EC50: 0.124 µM (active)
[10]
  IC50: > 80 µM (inactive)
[11]
  EC50: 0.101 µM (active)
[12]
  EC50: < 0.1 µM (active)
[13]
  EC50: < 0.1 µM (active)
[14]
  IC50: > 100 µM (inactive)
[15]
  EC50: 0.111 µM (active)

## CC(=O)CCc1ccc(Oc2nc(-c3cccnc3)nc3ccccc23)cc1
[16]
  IC50: > 100 µM (inactive)
[17]
  IC50: > 79 µM (inactive)

## Clc1nss/c1=N\C1CCC1
[18]
  IC50: 15.6 µM (active)
[19]
  IC50: 76.3 µM (active)

## Cc1ccccc1CSc1nnc(-c2ccccn2)n1Cc1cccs1
[20]
  EC50: > 32 µM (inactive)
[21]
  EC50: > 32 µM (inactive)
[22]
  EC50: 14.7 µM (inactive)

## O=C(Cn1sc2ccccc2c1=O)Nc1ccc(Br)cc1
[23]
  IC50: 10.2 µM (inactive)
[24]
  IC50: 24.2 µM (inactive)
[25]
  IC50: > 25 µM (inactive)

## O=C(COc1ccc(F)cc1Cl)Nc1nnc(-c2ccc3c(c2)CCCC3)o1
[26]
  EC50: 10 µM (active)

## O=c1c2[nH]c3ccc(F)cc3c2ncn1CCc1ccc(O)c(O)c1
[27]
  IC50: 0.253 µM (active)
[28]
  IC50: 1.04 µM (active)
